Reference: patent US20130059778A1, “Identification of a Genetic Risk Factor for Diabetes” (priority 2010, published 2013)

How the values were obtained:
[1] = test system: wild type rat islets; experiment: Insulin secretion assay, rat islets treated with adenovirus (siRNA knockdown / rescue); format: cell-based; conditions: adenoviral delivery to knockdown islets; p=0.03, n=6
Description: INS-1-derived cell line 823/3 was cultured as described previously (28). Small interfering RNA (siRNA) sequences corresponding to rat ankyrin-B siRNA1: GGCCAGAAGATCTCAAGGA (SEQ ID NO:2), siRNA2: GCTGTGTAGCATTTTAACA (SEQ ID NO:3), or a control siRNA which is siRNA 1 mutated at three base sites: GGCCCGAAGAGCTCAAGGA (SEQ ID NO:4), were cloned into vector EHOO6 and used for construction of Ad-ankB siRNA recombinant adenoviruses by the methods described (29). Complementary DNAs encoding human ankyrin-B or ankyrin-B W/W (7, 8) were used to prepare recombinant adenoviruses (AdCMV-h ankB and h ankB RAN) using the AdEasy system (Stratagene catalog number 240010). An adenovirus containing the green fluorescent protein (GFP) gene (AdCMV-_GFP) was used as a control. Purified viruses were incubated with INS-1 823/3 cells or islets at multiplicities of infection (MOI) of 20-50 for 18 h. Assays were undertaken 72 h later.
Islets were isolated from ankB littermates and male Wistar rats by pancreatic perifusion as previously described (28). […] Insulin secretion was then measured by using static incubation for a 1 h period in HBSS containing 3 mM glucose. […] Static incubation samples and extract samples were analyzed for insulin concentrations via radioimmunoassay with the insulin Coat-a-Count kit (Diagnostic Products, Los Angeles). […]

[2] = test system: islets isolated from ankB (+/+) and (+/−) mice; experiment: Insulin secretion assay, islets from ankB(+/+) and (+/−) mice; format: cell-based, mouse; conditions: for potentiation of glucose-stimulated insulin release: Glp-1 100 nM
Description: Islets were isolated from ankB littermates and male Wistar rats by pancreatic perifusion as previously described (28). Islets were maintained in culture medium containing 11 mM glucose until the day of the assay. Insulin secretion was assayed in HEPES balanced salt solution (HBSS) (114 mM NaCl, 4.7 mM KCl, 1.2 mM KH2PO4, 1.16 mM MgSO4, 20 mM HEPES, 2.5 mM CaCl2, 25.5 mM NaHCO3, and 0.2% BSA, pH 7.2). Islets were pre-incubated HBSS containing 3 mM glucose for 2 hours. Insulin secretion was then measured by using static incubation for a 1 h period in HBSS containing 3 mM glucose. Islets were then transferred to HBSS containing 16.7 or 8 mM glucose for 1 hour, and then HBSS containing 16.7 or 8 mM glucose plus 0.1 mM carbachol or 100 nM Glp-1 for 1 hour. Following the incubations, islet samples were normalized for insulin content by extraction with 1 M acetic acid in 0.1% BSA. Static incubation samples and extract samples were analyzed for insulin concentrations via radioimmunoassay with the insulin Coat-a-Count kit (Diagnostic Products, Los Angeles). Values presented represent the mean values+/−SEM.

[3] = test system: islets from ankB(+/+) and (+/−) mice; experiment: Intraislet calcium measurements using Fura-2; format: cell-based, mouse
Description: Islets from 8-10 month ankB(+/+) and (+/−) mice were isolated as described above and incubated overnight in medium containing 11 mM glucose. […] Islets were incubated 45 min at 37° C. Islets were then affixed to small open perifusion chamber (volume 150 μL) with a coverslip bottom using Puramatrix Peptide Hydrigel (BD Biosciences). Chamber was then mounted on a Zeiss Axiovert epifluorescence inverted microscope fitted with a Plan-Neofluar 16x/0.50 objective. The fluorescence (excitation at 355 or 380 nm) was recorded by a slow-scan charged-coupled device (CCD) camera (Andor Technology) and quantitated using AndorIQ software. All perifusions were performed at 37° C. using perfusion buffer containing either 3 mM glucose, 11 mM glucose, 30 mM KCl in 3 mM glucose, or 0.1 mM carbachol in 3 mM glucose. To assay carbachol effects in the absence of calcium, buffer containing 2 mM EGTA and 0 mM Ca^2+ was used. Data represent the mean+/−SEM of 3-7 individual islet recordings/animal using 6 animals/genotype. Significance was calculated using two-tailed T test.

full-length human ankyrin-B: full length 220 kD human ankyrin-B, siRNA-resistant, expressed from adenovirus
rescue of impaired carbachol-mediated insulin release [1]: −40%

glucagon-like peptide 1 [Glp-1]
potentiation of glucose-stimulated insulin release ([2]; ankB(+/−) islets, p=0.01, n=6): 2.1 fold | potentiation of glucose-stimulated insulin release ([2]; wild type animals): ~1.6 fold

C[N+](C)(C)CCOC(N)=O [carbachol]
reduction in carbachol-stimulated insulin release ([2]; ankB(+/−) islets vs ankB(+/+), carbachol 0.1 mM, p=0.007, n=6): 40% | potentiation of insulin release by carbachol ([2]; wild type islets, stimulatory glucose plus carbachol 0.1 mM): 2.1 fold | reduction in Ca2+ release ([3]; ankB(+/−) islets, carbachol 0.1 mM in buffer containing 5 mM Ca2+): 64% | reduction in intracellular Ca2+ release ([3]; ankB(+/−) vs ankB(+/+) islets, Ca2+-free buffer containing carbachol 0.1 mM): ~79%
